Measurements reported in ChEMBL document CHEMBL3244418, “Synthesis and central nervous system activity of quinazolones related to 2-methyl-3-(o-tolyl)-4(3H)-quinazolone (methaqualone)” (J Med Chem, 1977).

Columns and labels:
[1] = system: Mus musculus; assay: Hypnotic activity in ip dosed CFLP mouse assessed as loss of righting reflex; format: functional
[2] = system: Mus musculus; assay: Anticonvulsant activity in ip dosed CFLP mouse assessed as inhibition of pentylenetetrazole-induced seizure; format: functional
[3] = system: Mus musculus; assay: Anticonvulsant activity in ip dosed CFLP mouse assessed as inhibition of maximum electroshock-induced seizure; format: functional
[4] = system: Mus musculus; assay: Hypnotic activity in ip dosed CFLP mouse after 30 mins by rotary drum test; format: functional; conditions: 0.5 h
[5] = system: Mus musculus; assay: […] activity in po dosed CFLP mouse assessed as inhibition of benzoquinone-induced writhing; format: functional
[6] = Chemical stability of the compound assessed as methaqualone/sulfur/disulfide formation; format: physicochemical

SMILES | ED50 [1] [mg/kg] | ED50 [2] [mg/kg] | ED50 [3] [mg/kg] | ED50 [4] [mg/kg] | ED50 [5] [mg/kg] | Stability [6]
Br.N=C(N)SCc1nc2ccccc2c(=O)n1-c1ccccc1 | 200 | > 50 | 53 | 42 | – | –
Br.N=C(N)SCc1nc2ccccc2c(=O)n1-c1ccccc1Cl | 200 | – | – | – | 90 | –
Cc1ccccc1-n1c(CBr)nc2ccccc2c1=O | > 200 | – | > 200 | > 200 | > 150 | –
Cc1ccccc1-n1c(CF)nc2ccccc2c1=O.Cl | 75 | 16 | 14.5 | 18 | – | –
Cc1ccccc1-n1c(CI)nc2ccccc2c1=O | > 400 | – | > 200 | > 200 | – | –
Cc1ccccc1-n1c(C(F)F)nc2ccccc2c1=O | > 400 | 50 | > 100 | 100 | – | –
Cc1ccccc1-n1c(C(Br)Br)nc2ccccc2c1=O | > 800 | > 200 | > 200 | > 200 | > 400 | –
Cc1ccccc1-n1c(C(F)(F)F)nc2ccccc2c1=O | > 400 | > 200 | > 200 | > 200 | > 200 | –
COCc1nc2ccccc2c(=O)n1-c1ccccc1C | 300 | 100 | 26 | 22 | 100 | –
CCOCc1nc2ccccc2c(=O)n1-c1ccccc1C | 300 | – | 64 | 27 | > 200 | –
CCCOCc1nc2ccccc2c(=O)n1-c1ccccc1C | > 400 | 150 | > 200 | – | > 200 | –
CCCCOCc1nc2ccccc2c(=O)n1-c1ccccc1C | > 400 | – | 120 | 88 | > 200 | –
Cc1ccccc1-n1c(CO)nc2ccccc2c1=O | > 400 | 70 | 135 | 56 | > 200 | –
CC(=O)OCc1nc2ccccc2c(=O)n1-c1ccccc1C | > 400 | 150 | 120 | 155 | 200 | –
Cc1ccccc1-n1c(COC(=O)CCC(=O)O)nc2ccccc2c1=O | > 400 | 150 | > 200 | > 200 | > 200 | –
CCCSCc1nc2ccccc2c(=O)n1-c1ccccc1C | > 800 | 70 | 160 | 100 | > 200 | –
Cc1ccccc1-n1c(CSC(N)=O)nc2ccccc2c1=O | 400 | 56 | 120 | 200 | > 200 | –
Cc1ccccc1-n1c(CSC(N)=O)nc2ccccc2c1=O.Cl | 35 | – | 34 | 19 | 200 | –
Cc1ccccc1-n1c(CSS(=O)(=O)O)nc2ccccc2c1=O | 150 | 39 | 82 | 44 | > 200 | –
Br.Cc1ccccc1-n1c(CSC(=N)N)nc2ccccc2c1=O | 56 | 28 | 65 | 35 | > 50 | –

SMILES | ED50 [1] [mg/kg] | ED50 [2] [mg/kg] | ED50 [3] [mg/kg] | ED50 [4] [mg/kg] | ED50 [5] [mg/kg] | Stability [6]
Br.C/N=C(\NC)SCc1nc2ccccc2c(=O)n1-c1ccccc1C | 100 | 23 | 25 | 32 | 51 | –
Br.CCCC/N=C(\NCCCC)SCc1nc2ccccc2c(=O)n1-c1ccccc1C | > 100 | > 40 | > 40 | 40 | 200 | –
Br.Cc1ccc([N+](=O)[O-])cc1-n1c(CSC(=N)N)nc2ccccc2c1=O | > 400 | – | – | – | > 200 | –
Br.Cc1ccccc1-n1c(CS/C(N)=N/N)nc2ccccc2c1=O | 100 | 23 | 35 | 15.5 | – | –
Br.Cc1ccccc1-n1c(CSC2=NCCCN2)nc2ccccc2c1=O | 200 | – | 50 | 39 | 170 | –
Br.C/N=C(/NC)SCc1nc2ccccc2c(=O)n1-c1ccccc1Cl | 150 | 40 | 30 | 27 | 200 | –
Br.C/N=C(\NC)SCc1nc2ccccc2c(=O)n1-c1ccccc1 | > 400 | 50 | 40 | > 50 | 200 | –
Br.N=C(N)SCc1nc2ccccc2c(=O)n1-c1ccccc1F | 400 | 75 | 38 | 43 | 100 | –
Br.C/N=C(\NC)SCc1nc2ccccc2c(=O)n1-c1ccccc1F | > 400 | > 50 | 45 | 54 | > 50 | –
Br.C/N=C(\NC)SCc1nc2ccccc2c(=O)n1-c1cc([N+](=O)[O-])ccc1C | > 50 | > 10 | > 10 | > 10 | > 10 | –
Br.Cc1c(Cl)cccc1-n1c(CSC(=N)N)nc2ccccc2c1=O | 400 | – | 42 | 57 | 200 | –
Br.Cc1ccccc1-n1c(CSC2=NCCN2)nc2ccccc2c1=O | 60 | 24 | 44 | 42 | > 50 | –
Br.O=c1c2ccccc2nc(CSC2=NCCN2)n1-c1ccccc1Cl | 50 | 25 | 18 | 12 | – | –
Br.O=c1c2ccccc2nc(CSC2=NCCN2)n1-c1ccccc1F | 200 | 100 | 37.5 | 32 | 90 | –
Br.O=c1c2ccccc2nc(CSC2=NCCN2)n1-c1ccccc1 | 200 | > 50 | 50 | > 50 | 50 | –
Br.Cc1ccc([N+](=O)[O-])cc1-n1c(CSC2=NCCN2)nc2ccccc2c1=O | > 400 | 150 | 100 | 86 | > 200 | –
Br.O=c1c2ccccc2nc(CSC2=NCCN2)n1-c1ccc(Cl)cc1 | > 200 | 37.5 | 35 | 47 | > 75 | –
Br.Cc1c(Cl)cccc1-n1c(CSC2=NCCN2)nc2ccccc2c1=O | 80 | 25 | > 25 | > 25 | – | –
COc1ccccc1-n1c(CS)nc2ccccc2c1=O | – | – | – | – | – | Unstable
Cc1ccccc1-n1c(C)nc2ccccc2c1=O [METHAQUALONE] | 96 | 14 | 48 | 30 | 36 | –
